Reference: BindingDB's records for doi:10.1021/jm00023a011 (Agricultural University of Athens, 1995)
pIC50: −log10 of the molar value.

Each molecule was assayed against T1, Phospholipase A1 member A (Rattus norvegicus, UniProt P97535) (assay: IC50 was measured as concentration causing 50% inhibition of lysosomal phospholipase A1 activity).
T1 sequence (P97535 whole entry): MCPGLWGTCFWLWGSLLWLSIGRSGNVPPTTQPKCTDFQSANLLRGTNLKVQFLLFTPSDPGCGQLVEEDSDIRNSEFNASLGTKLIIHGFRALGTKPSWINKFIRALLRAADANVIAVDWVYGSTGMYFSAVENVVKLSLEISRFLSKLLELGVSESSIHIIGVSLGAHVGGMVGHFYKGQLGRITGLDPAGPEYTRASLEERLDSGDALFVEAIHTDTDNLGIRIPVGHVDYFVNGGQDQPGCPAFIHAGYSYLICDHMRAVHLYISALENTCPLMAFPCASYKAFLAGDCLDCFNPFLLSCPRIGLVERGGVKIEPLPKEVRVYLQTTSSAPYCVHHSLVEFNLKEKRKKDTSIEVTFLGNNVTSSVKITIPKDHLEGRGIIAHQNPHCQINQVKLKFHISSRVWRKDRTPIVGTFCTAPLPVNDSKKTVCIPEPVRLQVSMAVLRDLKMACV
With `CCNC1CC(N)C(OC2OC(CNC(=O)C(N)CC(=O)O)=CCC2N)C(O)C1OC1OCC(C)(O)C(NC)C1O` (centres undefined) the pIC50 was 3.88. Molecule `CCN[C@@H]1C[C@H](N)[C@@H](O[C@H]2OC(CNC(=O)[C@H](C)NC(=O)[C@H](C)N)=CC[C@H]2N)[C@@H](O)[C@H]1O[C@H]1OC[C@](C)(O)[C@H](NC)[C@@H]1O` has a pIC50 of 4.00. For `C[C@H](N)C(=O)N[C@@H](C)C(=O)NC[C@H]1O[C@H](O[C@H]2[C@@H](O)[C@@H](O[C@H]3O[C@@H](CO)[C@@H](O)[C@H](N)[C@@H]3O)[C@H](N)C[C@@H]2N)[C@H](O)[C@H](O)[C@@H]1O`, the pIC50 was 4.31. In the case of `CCNC1CC(N)C(OC2OC(CNC(=O)CN)=CCC2N)C(O)C1OC1OCC(C)(O)C(NC)C1O` (centres undefined), the pIC50 was 3.93.

The molecules below were run against T1, Phospholipase A1 member A (assay: IC50 was measured as concentration causing 50% inhibition of lysosomal phospholipase A1 activity.).
For `CCNC1CC(N)C(OC2OC(CNC(=O)C(C)N)=CCC2N)C(O)C1OC1OCC(C)(O)C(NC)C1O` (centres undefined), the pIC50 was 4.04. `CC(N)C(=O)NCC1OC(OC2C(N)CC(N)C(OC3OC(CO)C(O)C(N)C3O)C2O)C(O)C(O)C1O` (centres undefined) gave a pIC50 of 4.12. With `NC[C@H]1O[C@H](O[C@H]2[C@H](O)[C@@H](O[C@H]3O[C@H](CO)[C@@H](O)[C@H](N)[C@H]3O)[C@H](N)C[C@@H]2N)[C@H](O)[C@@H](O)[C@@H]1O` [CHEBI:17630] the pIC50 was 4.09. For `CN[C@@H]1[C@@H](O)[C@@H](O[C@@H]2[C@@H](O)[C@H](O[C@H]3O[C@H]([C@@H](C)NC)CC[C@H]3N)[C@@H](N)C[C@H]2N)OC[C@]1(C)O` [GENTAMICIN], the pIC50 was 4.03. `CCN[C@@H]1C[C@H](N)[C@@H](O[C@H]2OC(CN)=CC[C@H]2N)[C@H](O)[C@H]1O[C@H]1OC[C@](C)(O)[C@H](NC)[C@H]1O` [Netilmicin] was tested, and the pIC50 was 3.94.
